From US8765447B2, “Fungal strain Beauveria sp. MTCC 5184 and a process for the preparation of enzymes therefrom” (Council of Scientific and Industrial Research, priority 2010, dated 2014) come the findings set out here.

For experiment [1], the system named is purified protease of Beauveria sp MTCC 5184. Put plainly: Stability of purified protease in organic solvents at 50° C. As to conditions: 25% (v/v) solvent, pH 7. It counts as biochemical. The source says: Following organic solvents were used: acetone, 1-butanol, benzene, chloroform, dimethylsulphoxide, ethanol, hexane, isopropanol and methanol. […] Samples were removed at different time intervals and residual activity was estimated.

The subject of experiment [2] is protease of Beauveria sp MTCC 5184. Put plainly: Stability of protease at 37° C. in water miscible solvents. It counts as biochemical. As to conditions: water miscible solvents (FIG. 10). On the procedure:
FIG. 10: Stability of protease at 37° C. in presence of water miscible solvents.

For experiment [3], the system named is purified protease of Beauveria sp MTCC 5184. Put plainly: Effect of urea on protease activity. It counts as biochemical. The conditions noted are these: 6M urea, 28° C., 2 h. On the procedure:
This example illustrates the effect of urea on protease activity of Beauveria sp MTCC 5184. […] In presence of 6M urea, protease was stable up to 2 h and retained more than 85% of initial activity (FIG. 13).

The test system is the same in experiment [4]. As to conditions: 3 M NaCl (FIG. 14), 28° C., 30 min. The method, then: Samples were removed at regular intervals and residual activity was measured at 50° C., pH 9.0 and expressed as percentage of activity without NaCl taken as 100%.
Experiment [5] concerns protease of Beauveria sp MTCC 5184. Briefly: Effect of inhibitors on protease activity. It counts as biochemical. On the procedure:
The protease activity has been expressed in terms of tyrosine equivalents. The reaction mixture contained an aliquot of suitably diluted enzyme solution and 10 mg Hammerstein casein in 0.1 M sodium carbonate buffer pH 9.0 in a total volume of 2 ml. After incubation at 50° C. for 10 min, the reaction was terminated by the addition of 3 ml of 5% trichloroacetic acid (acidified with concentrated hydrochloric acid). The precipitate formed was filtered through Whatman No. 1 filter paper after standing for 30 min at room temperature. The absorbance of trichloroacetic acid soluble fraction was measured at 280 nm. Micrograms of tyrosine produced was calculated from a pre-calibrated graph of absorbance at 280 nm against tyrosine concentration and the units are expressed as […] of tyrosine released per minute under assay conditions.
This example illustrates the effect of inhibitors on protease activity of Beauveria sp MTCC 5184. Following inhibitors were studied: phenylmethylsulfonyl fluoride (PMSF), ethylene-diaminetetraacetic acid (EDTA), iodoacetic acid, N-tosyl-L-phenylalanine chloromethyl ketone (TPCK), N-tosyl-L-lysine chloromethyl ketone (TLCK), Dimethylsulphoxide (DMSO) and Benzamidine. […] Protease without inhibitor served as control.

Experiment [6] relates to purified protease of Beauveria sp MTCC 5184. Briefly: Effect of β-mercapto ethanol and Triton X-100 on protease activity. The format is biochemical. As to conditions: 30 min. The source says:
This example illustrates the effect of β-mercapto ethanol (BME) and Triton X-100 on protease activity of Beauveria sp MTCC 5184.

The mark [7] stands for this setting: inhibitor 5 mM, pre-incubated 1 h, pH 8.0.

As to `CO` [Methanol, methanol], the results for the “Residual Activity (%)” value in experiment [1] (0 h), in experiment [1] (1 h) and in experiment [1] (2 h) were 100.00%, 93.49% and 46.09%, respectively. The compound also registered an initial activity retained in experiment [2] greater than 80%.

On to `NC(N)=O` [urea], for which the initial activity retained result in experiment [3] is reported as “more than 85%”.

In experiment [4], `[Cl-].[Na+]` [NaCl] yielded a stability of 100%.

For “N-tosyl-L-lysine chloromethyl ketone [TLCK]”, the “Inhibition (%)” value in experiment [5] (setting [7]) was determined as 12.12%.

Turning to `C[S+](C)[O-]` [DMSO, Dimethylsulphoxide], the “Residual Activity (%)” value was determined as 100.00% in experiment [1] (0 h) and 87.52% in experiment [1] (1 h). The “Inhibition (%)” value in experiment [5] (inhibitor 10%, pre-incubated 1 h, pH 8.0) was found to be 0.04%.

Triton X-100 had an activity retained in experiment [6] (2% Triton X-100, 28° C.) of 80%.

As to `O=C(O)CI` [Iodoacetate, iodoacetic acid], the “Inhibition (%)” value in experiment [5] (pH 8) worked out at 0.30%.

Regarding `N=C(N)c1ccccc1` [Benzamidine], in experiment [5] (setting [7]), the “Inhibition (%)” value is 3.62%.

Regarding `O=C(O)CN(CCN(CC(=O)O)CC(=O)O)CC(=O)O` [EDTA, ethylene-diaminetetraacetic acid], in experiment [5] (inhibitor 20 mM, pre-incubated 1 h, pH 8.0), the “Inhibition (%)” value was determined as 1.51%.

On to “N-tosyl-L-phenylalanine chloromethyl ketone [TPCK]”, for which, in experiment [5] (setting [7]), the “Inhibition (%)” value was found to be 7.33%.

For the compound `OCCS` [BME, β-mercapto ethanol], in experiment [6] (10% BME, 28° C.), the activity retained entry is “retained full activity”.
